These results are taken from US20170239289A1, “TREATMENT OF INFLAMMATION, RESPIRATORY TRACT INFECTIONS AND CYSTIC FIBROSIS” (Advanced Inhalation Therapies (AIT) Ltd., priority 2014, published 2017).

Experiment [1] has as its system human subjects diagnosed with, or suffering from CF. The experiment in a line: Example 1: FEV1 in CF subjects treated with 160 ppm NO. Format: in vivo. As for the experimental part:
(§1) NO was administered via inhalation to nine clinically stable human subjects diagnosed with, or suffering from CF from two medical centers. Patients received three daily 30-minute treatments of 160 ppm NO with at least 3.5 hours between treatments, for 5 days per week over a two-weeks time period.
(§2) Preliminary efficacy measures included determination of microbial density in sputum and measurements of forced exhaled volume at 1 second (FEV1). Inflammation associated with C-reactive protein (CRP) levels was assessed as a secondary outcome measure. Other inflammation biomarkers, such as interleukins, were also monitored (data not shown).

In experiment [2] the test system is C-reactive protein (CRP). The experiment is described as follows: Example 1: CRP levels in CF subjects treated with 160 ppm NO. Format: in vivo, human. As to conditions: three subjects with baseline CRP greater than 5 mg/L. The procedure:
as §1, §2

In experiment [3] the test system is nonmucoid P. aeruginosa. The experiment in a line: Example 1: microbial density in sputum (CFU) during NO inhalation. It counts as in vivo. As to conditions: Patient 4 (CFSCH04). The procedure: as §1, §2
(§3) Bacterial load was measured for exemplary, non-limiting selection of species that included, P. alcaligenes, methicillin-sensitive Staphylococcus aureus (MSSA), Achromobacter spp., A. fumigates, non-mucoid P. aeruginosa and mucoid P. aeruginosa.

Experiment [4] deals with Achromobacter spp. The experiment is described as above. Format: in vivo. The note with it: Patient 3 (CFSCH03). As for the experimental part:
as §1, §2, §3

Experiment [5] concerns P. alcaligenes. Described as above. It counts as in vivo. As to conditions: Patient 1 (CFSCH01), by Day 9. As for the experimental part: as §1, §2, §3
The test system of experiment [6] is A. fumigatus. The experiment is described as above. Format: in vivo. The note with it: Patient 3 (CFSCH03). The procedure:
as §1, §2, §3

Experiment [7] relates to methicillin-sensitive S. aureus (MSSA). The experiment is described as above. It counts as in vivo, Staphylococcus aureus. As to conditions: Patient 3 (CFSCH03). As for the experimental part:
as §1, §2, §3

In experiment [1] (one patient, returned to initial levels after 2 weeks), `[N]=O` [NO, nitric oxide] came in with an FEV1 reduction of 11%. Moreover, the “changes in FEV1 values” in experiment [1] (two of 9 subjects) is on record as “no significant changes”. For the same molecule, the “reduction in CRP levels after treatment” value in experiment [2] was 40-60%. For the same molecule, the “decrease in nonmucoid P. aeruginosa counts” value in experiment [3] is 1 log. For the same molecule, the “decrease in Achromobacter spp. CFU” value in experiment [4] is 1 log. The “decrease in P. alcaligenes CFUs” value in experiment [5] was determined as 2 log. For the same molecule, the “A. fumigatus CFU counts” value in experiment [6] is listed as “elimination”. Also, the “MSSA CFU counts” value in experiment [7] is recorded as “elimination”.
